Source: the supplement of paper PMC10307832

Experiments:
Assay in all cases: relative viability (nuclei count vs DMSO), 5 days (fraction); higher = more cells survive
A-427 = system: A-427
Outline: (§1)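 Lung cancer cell lines were seeded in 1536-well plates and dosed by pin tool the next day, with either a single drug or a fixed anchor-drug dose combined with five library-drug doses (not always all listed) spaced in √10 steps. Five days later, one step fixed the cells and stained their nuclei (final 0.05% Triton X-100, 1% formaldehyde, 1 ug/ml Hoechst), and nuclei were counted on 4× images. Relative viability is the nuclei count in treated wells divided by the count in vehicle wells, and each value is the median of duplicate plates.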

COR-L 105 = system: COR-L 105
Outline: as §1

EPLC-272H = system: EPLC-272H
Outline: as §1

HCC-366 = system: HCC-366
Outline: as §1

HCC-78 = system: HCC-78
Outline: as §1

LC-2-ad = system: LC-2-ad
Outline: as §1

LU99A = system: LU99A
Outline: as §1

LXF-289 = system: LXF-289
Outline: as §1

NCI-H1666 = system: NCI-H1666
Outline: as §1

NCI-H1792 = system: NCI-H1792
Outline: as §1

NCI-H1793 = system: NCI-H1793
Outline: as §1

NCI-H1915 = system: NCI-H1915
Outline: as §1

NCI-H1944 = system: NCI-H1944
Outline: as §1

NCI-H2009 = system: NCI-H2009
Outline: as §1

NCI-H2085 = system: NCI-H2085
Outline: as §1

NCI-H2170 = system: NCI-H2170
Outline: as §1

NCI-H358 = system: NCI-H358
Outline: as §1

NCI-H460 = system: NCI-H460
Outline: as §1

SK-LU-1 = system: SK-LU-1
Outline: as §1

SW 900 = system: SW 900
Outline: as §1

UMC-11 = system: UMC-11
Outline: as §1

For CC(=O)O[C@@]12CO[C@@H]1C[C@H](O)[C@@]1(C)C(=O)[C@H](O)C3=C(C)[C@@H](OC(=O)[C@H](O)[C@@H](NC(=O)OC(C)(C)C)c4ccccc4)C[C@@](O)([C@@H](OC(=O)c4ccccc4)[C@H]21)C3(C)C [Docetaxel] + Nc1ncn([C@H]2C[C@H](O)[C@@H](CO)O2)c(=O)n1 [Decitabine] (partner 2 µM), the relative viability (A-427; first compound 0.0002 µM) was 0.568, the relative viability (A-427; first compound 0.000632 µM) was 0.569 and the relative viability (A-427; first compound 0.002 µM) was 0.443. For the same compound, the relative viability (A-427; first compound 0.006325 µM) was 0.3, the relative viability (A-427; first compound 0.02 µM) was 0.222 and the relative viability (COR-L 105; first compound 0.0002 µM) was 0.666. For the same compound, the relative viability (COR-L 105; first compound 0.000632 µM) was 0.533, the relative viability (COR-L 105; first compound 0.002 µM) was 0.442 and the relative viability (COR-L 105; first compound 0.006325 µM) was 0.394. For the same compound, the relative viability (COR-L 105; first compound 0.02 µM) was 0.364, the relative viability (EPLC-272H; first compound 0.0002 µM) was 0.364 and the relative viability (EPLC-272H; first compound 0.000632 µM) was 0.308. For the same compound, the relative viability (EPLC-272H; first compound 0.002 µM) was 0.179, the relative viability (EPLC-272H; first compound 0.006325 µM) was 0.127 and the relative viability (EPLC-272H; first compound 0.02 µM) was 0.0741. The relative viability (HCC-366; first compound 0.0002 µM) was 0.292, the relative viability (HCC-366; first compound 0.000632 µM) was 0.12 and the relative viability (HCC-366; first compound 0.002 µM) was 0.107. For the same compound, the relative viability (HCC-366; first compound 0.006325 µM) was 0.0547, the relative viability (HCC-366; first compound 0.02 µM) was 0.0292 and the relative viability (HCC-78; first compound 0.0002 µM) was 0.627. The relative viability (HCC-78; first compound 0.000632 µM) was 0.654, the relative viability (HCC-78; first compound 0.002 µM) was 0.458 and the relative viability (HCC-78; first compound 0.006325 µM) was 0.511. The relative viability (HCC-78; first compound 0.02 µM) was 0.353, the relative viability (LC-2-ad; first compound 0.0002 µM) was 0.769 and the relative viability (LC-2-ad; first compound 0.000632 µM) was 0.714. It also gave a relative viability (LC-2-ad; first compound 0.002 µM) of 0.465, a relative viability (LC-2-ad; first compound 0.006325 µM) of 0.323 and a relative viability (LC-2-ad; first compound 0.02 µM) of 0.272. The relative viability (LU99A; first compound 0.0002 µM) was 0.87, the relative viability (LU99A; first compound 0.000632 µM) was 0.872 and the relative viability (LU99A; first compound 0.002 µM) was 0.466. For the same compound, the relative viability (LU99A; first compound 0.006325 µM) was 0.363, the relative viability (LU99A; first compound 0.02 µM) was 0.204 and the relative viability (LXF-289; first compound 0.0002 µM) was 0.383. It also gave a relative viability (LXF-289; first compound 0.000632 µM) of 0.382, a relative viability (LXF-289; first compound 0.002 µM) of 0.25 and a relative viability (LXF-289; first compound 0.006325 µM) of 0.14. The relative viability (LXF-289; first compound 0.02 µM) was 0.118, the relative viability (NCI-H1666; first compound 0.0002 µM) was 0.594 and the relative viability (NCI-H1666; first compound 0.000632 µM) was 0.64. It also gave a relative viability (NCI-H1666; first compound 0.002 µM) of 0.504, a relative viability (NCI-H1666; first compound 0.006325 µM) of 0.477 and a relative viability (NCI-H1666; first compound 0.02 µM) of 0.425. It also gave a relative viability (NCI-H1792; first compound 0.0002 µM) of 0.445, a relative viability (NCI-H1792; first compound 0.000632 µM) of 0.394 and a relative viability (NCI-H1792; first compound 0.002 µM) of 0.376. It also gave a relative viability (NCI-H1792; first compound 0.006325 µM) of 0.172, a relative viability (NCI-H1792; first compound 0.02 µM) of 0.0755 and a relative viability (NCI-H1793; first compound 0.0002 µM) of 0.532. The relative viability (NCI-H1793; first compound 0.000632 µM) was 0.359, the relative viability (NCI-H1793; first compound 0.002 µM) was 0.278 and the relative viability (NCI-H1793; first compound 0.006325 µM) was 0.2. For the same compound, the relative viability (NCI-H1793; first compound 0.02 µM) was 0.18, the relative viability (NCI-H1915; first compound 0.0002 µM) was 0.245 and the relative viability (NCI-H1915; first compound 0.000632 µM) was 0.25. For the same compound, the relative viability (NCI-H1915; first compound 0.002 µM) was 0.231, the relative viability (NCI-H1915; first compound 0.006325 µM) was 0.184 and the relative viability (NCI-H1915; first compound 0.02 µM) was 0.124. It also gave a relative viability (NCI-H1944; first compound 0.0002 µM) of 0.45, a relative viability (NCI-H1944; first compound 0.000632 µM) of 0.461 and a relative viability (NCI-H1944; first compound 0.002 µM) of 0.406. The relative viability (NCI-H1944; first compound 0.006325 µM) was 0.291, the relative viability (NCI-H1944; first compound 0.02 µM) was 0.139 and the relative viability (NCI-H2009; first compound 0.0002 µM) was 0.438. It also gave a relative viability (NCI-H2009; first compound 0.000632 µM) of 0.376, a relative viability (NCI-H2009; first compound 0.002 µM) of 0.3 and a relative viability (NCI-H2009; first compound 0.006325 µM) of 0.263. The relative viability (NCI-H2009; first compound 0.02 µM) was 0.181, the relative viability (NCI-H2085; first compound 0.0002 µM) was 0.539 and the relative viability (NCI-H2085; first compound 0.000632 µM) was 0.612. It also gave a relative viability (NCI-H2085; first compound 0.002 µM) of 0.552, a relative viability (NCI-H2085; first compound 0.006325 µM) of 0.459 and a relative viability (NCI-H2085; first compound 0.02 µM) of 0.401. It also gave a relative viability (NCI-H2170; first compound 0.0002 µM) of 0.472, a relative viability (NCI-H2170; first compound 0.000632 µM) of 0.437 and a relative viability (NCI-H2170; first compound 0.002 µM) of 0.371. For the same compound, the relative viability (NCI-H2170; first compound 0.006325 µM) was 0.172, the relative viability (NCI-H2170; first compound 0.02 µM) was 0.151 and the relative viability (NCI-H358; first compound 0.0002 µM) was 0.183. For the same compound, the relative viability (NCI-H358; first compound 0.000632 µM) was 0.189, the relative viability (NCI-H358; first compound 0.002 µM) was 0.18 and the relative viability (NCI-H358; first compound 0.006325 µM) was 0.135. The relative viability (NCI-H358; first compound 0.02 µM) was 0.116, the relative viability (NCI-H460; first compound 0.0002 µM) was 0.443 and the relative viability (NCI-H460; first compound 0.002 µM) was 0.061. It also gave a relative viability (NCI-H460; first compound 0.006325 µM) of 0.0383, a relative viability (NCI-H460; first compound 0.02 µM) of 0.0286 and a relative viability (SK-LU-1; first compound 0.0002 µM) of 0.613. For the same compound, the relative viability (SK-LU-1; first compound 0.000632 µM) was 0.645, the relative viability (SK-LU-1; first compound 0.002 µM) was 0.524 and the relative viability (SK-LU-1; first compound 0.006325 µM) was 0.378. For the same compound, the relative viability (SK-LU-1; first compound 0.02 µM) was 0.269, the relative viability (SW 900; first compound 0.0002 µM) was 0.485 and the relative viability (SW 900; first compound 0.000632 µM) was 0.344. It also gave a relative viability (SW 900; first compound 0.002 µM) of 0.323, a relative viability (SW 900; first compound 0.006325 µM) of 0.296 and a relative viability (SW 900; first compound 0.02 µM) of 0.212. It also gave a relative viability (UMC-11; first compound 0.0002 µM) of 0.399, a relative viability (UMC-11; first compound 0.000632 µM) of 0.613 and a relative viability (UMC-11; first compound 0.002 µM) of 0.401. For the same compound, the relative viability (UMC-11; first compound 0.006325 µM) was 0.345 and the relative viability (UMC-11; first compound 0.02 µM) was 0.238.
